Test results published in patent US20190015312A1, “COSMETIC FORMULATIONS” (KIMBERLY-CLARK WORLDWIDE, INC., priority 2015, published 2019).

tested on: volunteer human subjects; experiment: Human clinical anti-perspirant study, gravimetric perspiration on lower back; format: in vivo; settings: Table D study; Acetyl Hexapeptide-30 and Pentapeptide-18 tested in combination
Procedure: The effectiveness of the peptide material at addressing perspiration was evaluated in a human clinical study. The screening of various potential sweat-reducing materials was determined using at least 20 volunteer human subjects. Twenty-four subjects were planned for enrollment into the study to ensure that 20 subjects completed testing. Baseline screening was performed on up to 40 subjects to ensure a sufficient number of subjects were enrolled in the treatment application phase who met minimum sweat production criteria of 50 mg over a 20-minute collection period. As shown in Table C and Table D, each subject had seven test materials randomly applied to the lower back in 2 inch by 2 inch treatment application areas and one site was left untreated on each subject as a control. The study subjects participated in a 4-day test period consisting of four, supervised treatment applications, spaced 24-hours apart, and one post treatment application sweat collection period 1-hour post-product application on Day 4. The study staff visually assessed the application sites, and applied each of the test materials to the backs of the subjects. […] Subjects were instructed to not leave the room during the approximately 60-minute test period. • Absorbent gauze sponges, 2 inch by 2 inch (two 4-ply sponges, Avant Gauze® Sponges), were applied to the eight sites on the lower back of the subjects. Sponges were occluded on the site using 3MTM BlendermTM Medical Tape, and affixed to the site using Scanpor® Paper Tape. • The sponges remained in place for a 20-minute acclimation period. […] Subjects were not allowed to consume water during this 20-minute period. • Following the 20-minute period, the sponges with the 3MTM BlendermTM Medical Tape were removed and sealed in a bag or container for weighing within 1-hour of removal. • After exiting the temperature-controlled room, the subjects again sat in normal ambient indoor temperature for at least 20-minutes, and trained technicians determined the body temperature, pulse, and blood pressure of each subject. […]

| Substance | Activity of the peptide in the presence of a salt based cosmetic astringent, in words |
| --- | --- |
| Acetyl Dipeptide-1 Cetyl Ester | high activity |
| Acetyl Hexapeptide-30 | high activity |
| Pentapeptide-18 | high activity |
